Measured values: patent publication US20080292561A1, “Pyrazolo-Pyrimidine Derivatives as Anti-Inflammatory Agents” (Glaxo Group Limited, priority 2005, published 2008)

The compounds below were run on NFkB activity (assay: Glucocorticoid mediated transrepression of NFkB activity (A549 cells, ELAM promoter alkaline phosphatase reporter, TNFα)). Conditions: Homo sapiens, A549, 16 h, Human A549 lung epithelial cells, 3 ng/ml human recombinant TNFα, read-out: pIC50, transrepression of NFkB activity (converted).
Assay type: cell-based
Source text: Human A549 lung epithelial cells were engineered to contain a secreted placental alkaline phosphatase gene under the control of the distal region of the NFkB dependent ELAM promoter as previously described in Ray, K. P., Farrow, S., Daly, M., Talabot, F. and Searle, N. “Induction of the E-selectin promoter by interleukin 1 and tumour necrosis factor alpha, and inhibition by glucocorticoids” Biochemical Journal (1997) 328: 707-15.
Compounds were solvated and diluted in DMSO, and transferred directly into assay plates such that the final concentration of DMSO was 0.7%. Following the addition of cells (40K per well), plates were incubated for 1 hr prior to the addition of 3 ng/ml human recombinant TNFα. Following continued incubation for 16 hr, alkaline phosphatase activity was determined by measuring the change in optical density at 405 nm with time following the addition of 0.7 volumes of assay buffer (1 mg/ml p-nitrophenylphosphate dissolved in 1M diethanolamine, 0.28M NaCl, 0.5 mM MgCl2). Dose response curves were constructed from which EC50 values were estimated.

IC50 | SMILES
< 100 nM | COc1ccc(F)cc1C(C)(C)CC(O)(CNc1nc(C)nc2c1cnn2-c1ccc(F)nc1)C(F)(F)F (stereo not drawn) [Example 20, 1,1,1-Trifluoro-4-[5-fluoro-2-(methyloxy)phenyl]-2-({[1-(6-fluoro-3-pyridinyl)-6-methyl-1H-pyrazolo[3,4-d]pyrimidin-4-yl]amino}methyl)-4-methyl-2-pentanol]
< 100 nM | CCc1nc(NCC(O)(CC(C)(C)c2cccc3c2OCC3)C(F)(F)F)c2cnn(-c3cccc(C(=O)OC)c3)c2n1 (stereo not drawn) [Example 30, Methyl 3-(4-{[4-(2,3-dihydro-1-benzofuran-7-yl)-2-hydroxy-4-methyl-2-(trifluoromethyl)pentyl]amino}-6-ethyl-1H-pyrazolo[3,4-d]pyrimidin-1-yl)benzoate]
< 100 nM | CCc1nc(NCC(O)(CC(C)(C)c2cccc3c2OCC3)C(F)(F)F)c2cnn(-c3ccc(F)cc3F)c2n1 (stereo not drawn) [Example 8, 2-({[1-(2,4-Difluorophenyl)-6-ethyl-1H-pyrazolo[3,4-d]pyrimidin-4-yl]amino}methyl)-4-(2,3-dihydro-1-benzofuran-7-yl)-1,1,1-trifluoro-4-methyl-2-pentanol]
